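Dose response: 5 concentrations. Exposure: 48 h. Format: 96-well plates. Endpoint: linear interpolation; highest concentration if not reached. GI50: concentration for 50% inhibition of growth.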 Calls of active or inactive are those of the source. Rule as the data show it: active = GI50 up to about 1.1 µM and inactive = higher.
Assays:
Experiment in all cases: NCI tumour cell line growth inhibition, 48 h
[1] = test system: CCRF-CEM
[2] = test system: COLO 205
[3] = test system: DU-145
[4] = test system: EKVX
[5] = test system: HT-29
[6] = test system: Hs-578T
[7] = test system: MCF7
[8] = test system: Malme-3M
[9] = test system: NCI-H226
[10] = test system: NCI-H23
[11] = test system: OVCAR-5
[12] = test system: OVCAR-8
[13] = test system: SF-295
[14] = test system: SK-MEL-2
[15] = test system: SNB-19
[16] = test system: HCC 2998
[17] = test system: K562
[18] = test system: LOX IMVI
[19] = test system: OVCAR-4
[20] = test system: SK-MEL-28

Row | SMILES | GI50 [1] | GI50 [2] | GI50 [3] | GI50 [4] | GI50 [5] | GI50 [6] | GI50 [7] | GI50 [8] | GI50 [9] | GI50 [10] | GI50 [11] | GI50 [12] | GI50 [13] | GI50 [14] | GI50 [15] | GI50 [16] | GI50 [17] | GI50 [18] | GI50 [19] | GI50 [20]
1 | CC(C)=NNc1cnnc2ccc([N+](=O)[O-])cc12 | 32.9 µM (inactive) | 36.6 µM (inactive) | > 100 µM (inactive) | > 100 µM (inactive) | > 100 µM (inactive) | > 100 µM (inactive) | 57.8 µM (inactive) | 63.8 µM (inactive) | > 100 µM (inactive) | > 100 µM (inactive) | > 100 µM (inactive) | > 100 µM (inactive) | > 100 µM (inactive) | > 100 µM (inactive) | > 100 µM (inactive) | – | – | – | – | –
2 | O=C1/C(=C/c2ccccc2)CCc2ccc(Cl)nc21 | 1.43 µM (inactive) | 19.7 µM (inactive) | 10 µM (inactive) | 17.9 µM (inactive) | 1.92 µM (inactive) | – | 1.79 µM (inactive) | 11 µM (inactive) | 20.6 µM (inactive) | 16.6 µM (inactive) | 17.3 µM (inactive) | 7.8 µM (inactive) | 17.2 µM (inactive) | 16.7 µM (inactive) | 15 µM (inactive) | 17 µM (inactive) | 2.17 µM (inactive) | 2.19 µM (inactive) | 22.5 µM (inactive) | 14.7 µM (inactive)
3 | COc1ccccc1/C=C1\CCC(CNc2ccc(Cl)cc2)C1=O (stereo unspecified) | 1.68 µM (inactive) | 2.39 µM (inactive) | – | 5.15 µM (inactive) | 2.2 µM (inactive) | – | – | 14.5 µM (inactive) | 14 µM (inactive) | 5.14 µM (inactive) | 10.6 µM (inactive) | 3.46 µM (inactive) | 2.49 µM (inactive) | 13.2 µM (inactive) | 11.8 µM (inactive) | 6.35 µM (inactive) | 0.215 µM (active) | 0.254 µM (active) | 14.7 µM (inactive) | 13.2 µM (inactive)
4 | COC(=O)C(CC1=C(O)Nc2ccccc2N1)/C(=N/NC(N)=O)C(=O)Nc1ccccc1C (stereo unspecified) | 21.7 µM (inactive) | 28.5 µM (inactive) | – | > 100 µM (inactive) | 66.5 µM (inactive) | – | – | > 100 µM (inactive) | > 100 µM (inactive) | > 100 µM (inactive) | > 100 µM (inactive) | > 100 µM (inactive) | > 100 µM (inactive) | > 100 µM (inactive) | > 100 µM (inactive) | > 100 µM (inactive) | 97.7 µM (inactive) | 17.8 µM (inactive) | > 100 µM (inactive) | 34.7 µM (inactive)
5 | Cn1c2cccc3nnc4cccc(c4c32)n1C | > 100 µM (inactive) | > 100 µM (inactive) | – | > 100 µM (inactive) | > 100 µM (inactive) | – | – | > 100 µM (inactive) | 45.8 µM (inactive) | – | > 100 µM (inactive) | > 100 µM (inactive) | > 100 µM (inactive) | > 100 µM (inactive) | > 100 µM (inactive) | > 100 µM (inactive) | > 100 µM (inactive) | > 100 µM (inactive) | > 100 µM (inactive) | > 100 µM (inactive)
6 | CCCC1C(=O)C(CC)Cc2c(OC)ccc(OC)c21 (stereo unspecified) | > 100 µM (inactive) | > 100 µM (inactive) | – | > 100 µM (inactive) | > 100 µM (inactive) | – | – | > 100 µM (inactive) | > 100 µM (inactive) | – | > 100 µM (inactive) | > 100 µM (inactive) | > 100 µM (inactive) | > 100 µM (inactive) | > 100 µM (inactive) | > 100 µM (inactive) | > 100 µM (inactive) | > 100 µM (inactive) | > 100 µM (inactive) | > 100 µM (inactive)
7 | O=c1c2ccc3cccc4c(=O)cc(c5ccccc15)-c2c34 | > 100 µM (inactive) | > 100 µM (inactive) | – | > 100 µM (inactive) | > 100 µM (inactive) | – | – | 30.5 µM (inactive) | > 100 µM (inactive) | 31.7 µM (inactive) | > 100 µM (inactive) | 28.6 µM (inactive) | > 100 µM (inactive) | 22 µM (inactive) | > 100 µM (inactive) | > 100 µM (inactive) | 54.5 µM (inactive) | 29.2 µM (inactive) | > 100 µM (inactive) | > 100 µM (inactive)
8 | O=C1c2ccccc2C(=O)N1CCn1ccc(NC(c2ccccc2)(c2ccccc2)c2ccccc2)nc1=O | 20.1 µM (inactive) | 17.6 µM (inactive) | – | 49.1 µM (inactive) | 16.8 µM (inactive) | – | – | 20.3 µM (inactive) | 18.7 µM (inactive) | 24 µM (inactive) | 25.1 µM (inactive) | 36.7 µM (inactive) | 15.1 µM (inactive) | 20.5 µM (inactive) | 25.2 µM (inactive) | 21.4 µM (inactive) | 20.3 µM (inactive) | 17.1 µM (inactive) | 25.5 µM (inactive) | 18.2 µM (inactive)
9 | COC(=O)C([C@H]1CC[C@H](OCc2ccccc2)[C@@]1(O)COCc1ccccc1)C(C)(O)CCc1ccccc1 (stereo partly specified) | 6.92 µM (inactive) | 12.2 µM (inactive) | 24.2 µM (inactive) | 8.57 µM (inactive) | 4.55 µM (inactive) | – | 10.1 µM (inactive) | 11.5 µM (inactive) | 11.8 µM (inactive) | 15.4 µM (inactive) | 13.5 µM (inactive) | 13.4 µM (inactive) | 8.41 µM (inactive) | 12.2 µM (inactive) | 26.5 µM (inactive) | 14 µM (inactive) | 8.15 µM (inactive) | 8.47 µM (inactive) | 17.1 µM (inactive) | 15.3 µM (inactive)
10 | CC(=O)O[C@H]1CC[C@@]2(C)C(=CC[C@@H]3[C@@H]2CC[C@]2(C)C(=N/O)/C(=C/c4ccc([N+](=O)[O-])cc4)C[C@@H]32)C1 | 3.76 µM (inactive) | 2.29 µM (inactive) | 5.26 µM (inactive) | – | 5.43 µM (inactive) | 2.39 µM (inactive) | – | 4.61 µM (inactive) | 7.66 µM (inactive) | 2.31 µM (inactive) | – | – | 3.74 µM (inactive) | 3.53 µM (inactive) | 2.94 µM (inactive) | – | 3.1 µM (inactive) | 6.52 µM (inactive) | 17 µM (inactive) | 11 µM (inactive)
11 | O=C(/C=C/c1cccc([N+](=O)[O-])c1)N1CCN(CCOC(c2ccccc2)c2ccccc2)CC1 | 28.4 µM (inactive) | 21.7 µM (inactive) | 47.3 µM (inactive) | > 100 µM (inactive) | 19.2 µM (inactive) | – | 27.9 µM (inactive) | 31.8 µM (inactive) | – | 43.6 µM (inactive) | > 100 µM (inactive) | 30.6 µM (inactive) | 56.8 µM (inactive) | – | > 100 µM (inactive) | 23.7 µM (inactive) | 19.4 µM (inactive) | 22.9 µM (inactive) | 29.9 µM (inactive) | 25.9 µM (inactive)
12 | CCN(CC)CCCN1CCc2c([nH]c3ccccc23)C1c1cccnc1 (stereo unspecified) | > 100 µM (inactive) | > 100 µM (inactive) | – | > 100 µM (inactive) | > 100 µM (inactive) | – | – | 74.1 µM (inactive) | > 100 µM (inactive) | > 100 µM (inactive) | > 100 µM (inactive) | > 100 µM (inactive) | > 100 µM (inactive) | > 100 µM (inactive) | > 100 µM (inactive) | > 100 µM (inactive) | > 100 µM (inactive) | > 100 µM (inactive) | 96.8 µM (inactive) | 38.4 µM (inactive)
13 | COc1cc([C@@H]2c3cc4c(cc3[C@@H](NCc3cccc(F)c3)C3COC(=O)[C@@H]32)OCO4)cc(OC)c1O (stereo partly specified) | 1.27 µM (inactive) | 12.9 µM (inactive) | – | 12.4 µM (inactive) | 8.61 µM (inactive) | – | – | 4.69 µM (inactive) | 1.03 µM (active) | 1.95 µM (inactive) | 13.9 µM (inactive) | 6.53 µM (inactive) | 2.24 µM (inactive) | 12.9 µM (inactive) | 2.81 µM (inactive) | 9.77 µM (inactive) | 6.49 µM (inactive) | 3.58 µM (inactive) | 30.6 µM (inactive) | 8.61 µM (inactive)
14 | O=c1c2c(-c3ccccc3)c3ccccc3nc2cnn1-c1ccccc1 | 81.7 µM (inactive) | 67 µM (inactive) | – | > 100 µM (inactive) | 70.3 µM (inactive) | – | – | > 100 µM (inactive) | > 100 µM (inactive) | > 100 µM (inactive) | > 100 µM (inactive) | > 100 µM (inactive) | > 100 µM (inactive) | > 100 µM (inactive) | > 100 µM (inactive) | > 100 µM (inactive) | 42.3 µM (inactive) | > 100 µM (inactive) | > 100 µM (inactive) | > 100 µM (inactive)
15 | C[C@@H](CC(O)C1OC1(C)C)[C@@H]1CC[C@]2(C)C3=CCC4C(C)(C)C(O)CC[C@]4(C)C3CCC12C (stereo partly specified) | 27.5 µM (inactive) | 21.3 µM (inactive) | – | 39.6 µM (inactive) | 11.4 µM (inactive) | – | – | 13 µM (inactive) | 18.5 µM (inactive) | 19.1 µM (inactive) | 38 µM (inactive) | 26.5 µM (inactive) | 13.7 µM (inactive) | 18.6 µM (inactive) | 37.6 µM (inactive) | 48.6 µM (inactive) | 6.84 µM (inactive) | 24.8 µM (inactive) | 20.8 µM (inactive) | 18.2 µM (inactive)
16 | C[C@H](CCC(=O)O)[C@H]1CC[C@H]2[C@@H]3[C@@H](O)C[C@@H]4C[C@H](O)CC[C@]4(C)[C@H]3CC[C@]12C [URSODIOL] | > 100 µM (inactive) | > 100 µM (inactive) | > 100 µM (inactive) | > 100 µM (inactive) | > 100 µM (inactive) | – | > 100 µM (inactive) | > 100 µM (inactive) | > 100 µM (inactive) | > 100 µM (inactive) | > 100 µM (inactive) | > 100 µM (inactive) | – | > 100 µM (inactive) | > 100 µM (inactive) | > 100 µM (inactive) | 72.8 µM (inactive) | > 100 µM (inactive) | > 100 µM (inactive) | > 100 µM (inactive)

From ChEMBL document CHEMBL1201862, “PubChem BioAssay data set” (2004)
